Assay results from US20260314597A1, “A NOVEL APPROACH TO INTERFERE IN THE PHENYLPROPANOID BIOSYNTHETIC PATHWAY TO REDUCE PINK-RIB DISORDER IN FRESH LETTUCE” (University of Florida Research Foundation, Inc., priority 2022, published 2026).
“Also recorded” adds a separate entry of the source.

Legend:
[1] = test system: phenylalanine ammonia-lyase (PAL); experiment: PAL activity in crude protein extracts of treated wounded midribs; assay type: biochemical, lettuce (iceberg, Romaine); details: 5 d at 5° C.; for PAL activity: L-cysteine 4.1 mM or melatonin 4.3 mM; for effect on PAL activity: iceberg and Romaine, vs wounded control
Text: (§1) In all tests, experimental setup began immediately upon arrival to the laboratory. 90 outer leaves were randomly selected from 18 to 22 lettuce heads that met commercial and damage-free quality standards. A midrib segment (12.5 cm) was excised from the center of each leaf and excess leaf blade tissue was trimmed parallel to the midrib. This procedure was adapted from the wounding procedure of Cantwell (2016). Each midrib was then partially sliced transversally at 1.3-cm increments along the midrib. Midribs (n=15) were immediately immersed for 30 s in one of five treatment solutions: deionized water (wounded control), L-cysteine (4.1 mM), naringenin (1.8 mM) with 20% dimethyl sulfoxide (DMSO), serotonin (2.8 or 5.7 mM) or melatonin (4.3 mM) with 0.50% DMSO. Immediately following immersion, the midribs for each treatment were patted dry using paper towels and placed (n=5) in a breathable, high-density polyethylene bag (n=3) (Narrow Profile Produce Bags [14×18 inches] Model No. S-19156, Uline®, Pleasant Prairie, WI). Unwounded control midribs were stored in the same manner. To allow for direct comparison, each cut site on each midrib was assigned an initial discoloration value on day 1 based on the coloration of the rib. Samples were stored at 5° C. with 95-98% relative humidity (RH) for 5 d, simulating commercial storage.
PAL activity was measured using a crude protein extraction following a method reported by Kim et al. (2020) with some modifications. Fresh lettuce samples (300 mg) were ground with liquid nitrogen in a pre-chilled mortar and pestle. A 0.1 mM Tris-HCl buffer (pH 8.3) was added at a 1:1 (w:v). The solution was incubated at 4° C. for 1 h and then centrifuged at 4° C., 9660×g for 15 min. Supernatants were collected in chilled tubes. Total protein content was measured using Quick Start Bradford protein assay kit (Bio-Rad, Hercules, CA, USA) and Bovine Serum Albumin (BSA) as a standard (10 mg mL^−1 in deionized water). Protein concentration was calculated based on the absorbance at 595 nm measured with a NanoDrop (One Microvolume UV-Vis Spectrophotometer, Thermo Scientific, Wilmington, DE, USA) and the standard curve. For the PAL activity test, 150 μL aliquots of the protein extract were incubated in a reaction buffer containing 0.1 mM Tris-HCl buffer (pH 8.3), 5 mM dithiothreitol (DTT), and 5 mM phenylalanine. Reaction mixtures were incubated at 37° C. for 90 min and stopped with the addition of 40 μL of 30% acetic acid. Reaction products were extracted with 600 μL of ethyl acetate and then centrifuged at 22° C., 9660×g for 5 min. The supernatant was dried in a speed vac and re-dissolved in 100 μL of 50% methanol. The final extract (10 μL) was analyzed by HPLC using the method previously described in Section 2.4.
The imaging data (a* value), enzyme activity (PAL and PPO), and metabolite (chlorogenic acid) results were expressed as mean±standard error and analyzed by lettuce type (iceberg or Romaine). For imaging data, an unpaired t-test was used to identify differences within a treatment throughout storage and among treatment groups at each time point. Treatment groups were defined as wounded, unwounded, L-cysteine, and melatonin. […] Analyses of variance were performed for PAL, PPO, and metabolite analyses using SAS software (version 9.4; SAS Institute, Cary, NC) to identify differences among treatment groups. Differences among treatments groups were separated by Tukey's Honest Significant Difference (HSD) test with a confidence level of 95%. The correlation between visual rating and a* value was evaluated for significance via an F-test, from which the P-value of the correlation was calculated.

[2] = test system: chlorogenic acid formation in lettuce midribs; experiment: Chlorogenic acid concentration in treated wounded midribs (HPLC); assay type: in vivo, lettuce (iceberg, Romaine); details: 5 d at 5° C.; for chlorogenic acid concentration: L-cysteine 4.1 mM or melatonin 4.3 mM; for effect on chlorogenic acid concentration: iceberg and Romaine, vs wounded
Text: as §1
Unwounded, wounded, and compound-treated wounded midrib samples were collected for untargeted metabolite analysis to identify global metabolite changes in response to melatonin application and targeted metabolite analysis to quantify chlorogenic acid a major caffeoyl compound in lettuce. For both targeted and untargeted metabolite analyses, fresh samples (500-800 mg) of the midribs from each treatment (n=3) were weighed, then immediately frozen in liquid nitrogen and stored at −80° C. for subsequent metabolite extraction. Frozen samples were extracted with a 50% methanol extraction solution containing a 1:1 (v:v) of methanol with deionized water. Samples were completely submerged in a 1:1.5 (w:v) of the sample weight (mg) to extraction solution volume (μL), respectively, and incubated at 65° C. for 90 min and then centrifuged at 9660×g for 10 min (MC-12 High Speed Micro Centrifuge, Benchmark Scientific, Edison, NJ). The supernatant was transferred to a new tube and filtered with a 0.45 μm filter (Choice, Thermo Scientific, Wilmington, DE). An aliquot of 400 μL was vacuum-dried.
For chlorogenic acid quantification, vacuum-dried samples were resuspended with 50 μL of 50% methanol. A 10 μL volume of extract was analyzed on an UltiMate 3000 High Performance Liquid Chromatography (HPLC) system (Thermo Fisher Scientific, Ward Hill, MA, USA) equipped with a diode array detector (DAD) in the UV-VIS region 200 to 500 nm. The compounds were separated on an Acclaim™ RSLC PA2 column (150 mm×2.1 mm; 2.2 μm) (Thermo Fisher Scientific, Ward Hill, MA, USA) coupled with a C18 guard column (10 mm×3 mm; 5 μm). The mobile phase consisted of solvent A (0.1% formic acid (v/v) in water) and solvent B (100% acetonitrile), and the gradient as follows: 5% to 20% increase of solvent B at 0.3 to 0.4 min, 20% to 25% increase solvent B at 5.25 to 12.5 min, 25% to 95% increase solvent B at 12.5 to 16.5 min, and 95% solvent B at 16.5 to 20 min. The flow rate was 0.4 mL min^−1 and the column temperature was 40° C. The level of chlorogenic acid was quantified based on the peak area at 328 nm and the standard curve using authentic standard (Sigma Aldrich; St. Louis, MO, USA).
The imaging data (a* value), enzyme activity (PAL and PPO), and metabolite (chlorogenic acid) results were expressed as mean±standard error and analyzed by lettuce type (iceberg or Romaine). For imaging data, an unpaired t-test was used to identify differences within a treatment throughout storage and among treatment groups at each time point. Treatment groups were defined as wounded, unwounded, L-cysteine, and melatonin. […]

[3] = test system: loquat; details: melatonin; 25 d storage at 4° C.; cited from earlier work
[4] = test system: PPO; details: melatonin 0.4 mM; litchi pericarp; up to 6 d; cited from earlier work

Row | PAL activity ([1]; Romaine, wounded control 9.56) [pkat mg^−1] | PAL activity ([1]; iceberg, wounded control 6.73) [pkat mg^−1] | SMILES | effect on PAL activity [1] | chlorogenic acid concentration ([2]; Romaine) [µg/g] | effect on chlorogenic acid concentration [2] | chlorogenic acid concentration ([2]; iceberg) [µg/g] | chlorogenic acid concentration [3] | quality and lignification [3] | PPO activity [4]
1 | 6.06 | 7.44 | COc1ccc2[nH]cc(CCNC(C)=O)c2c1 [melatonin] | no significant reduction in PAL activity; also recorded: neither enzyme activity (PAL or PPO) nor chlorogenic acid concentration were impacted; also recorded: did not significantly affect PAL or PPO enzyme activities | 3.11 | neither L-cysteine nor melatonin significantly reduced chlorogenic acid concentration; also recorded: neither enzyme activity (PAL or PPO) nor chlorogenic acid concentration were impacted; also recorded: did not significantly affect PAL or PPO enzyme activities nor formation of chlorogenic acid | 1.55 | increased | maintaining quality and delaying lignification | significant decrease
2 | 11.07 | 5.43 | N[C@@H](CS)C(=O)O [L-cysteine] | no significant reduction in PAL activity | 3.11 | neither L-cysteine nor melatonin significantly reduced chlorogenic acid concentration | 1.55 | – | – | –
